According to patent US20220053796A1, “COMPOSITION FOR SUPPORTING ANIMAL WITH CANCER” (MARS, INCORPORATED, priority 2018, published 2022):
Counter-ions that a name gives are not always drawn. Like-named read-outs stand apart in the source and are kept apart here.

What was measured:
Type in all cases: cell-based, canine
C2 cancer cell line = assay: MTT proliferation assay
Experimental: (§1) Cells were plated at a density of 4×10^3 cells per well on 96-well tissue culture-treated flat bottom plates and incubated overnight in complete medium. Cells were treated the following day with DMSO control or extract using a twofold serial dilution for 8 final concentrations ranging from […] to 100 μg mL-1 for 48 h to assess all extracts for potential effectiveness at reducing cellular proliferation. To quantify cellular proliferation, MTT dye assays were performed by adding 30 μL of MTT dye (5 mg mL-1 in phosphate-buffered saline solution) to each well and incubating at 37° C. for 1 h. Media were then aspirated and the cells were solubilized in 200 μL of isopropanol. The optical density of each well was analyzed on a spectrophotometric plate reader (Epoch; Biotek, Winooski, Vt., USA) at a wavelength of 570 nm.
(§2) Synergy between extracts was examined using combinations of two extracts at six concentrations: 0.8, 1.7, 3.1, 6.3, 12.5, or 25 μg mL-1. The percent proliferating cells of control for each treatment was pooled from all experiments and is reported as mean f standard error of the mean.
(§3) Raw data from proliferation assays (optical density of each well) were normalized to the vehicle alone treatment for individual assays, considered to represent 100% proliferating cells (single or combined treatment). The % proliferating cells was then averaged across each replicate. The IC50 for each extract was then calculated across experiments by Probit analysis. The compound interactions were calculated by multiple drug effect analysis using CalcuSyn software (v.2.11; Biosoft, Cambridge, GB, United Kingdom).

CF41.Mg cell line = assay: ATPlite proliferation assay; conditions: Canis lupus familiaris, 72 h
Experimental: (§4) The different cancer cell lines were plated at the optimal number of cells per well in 90 μL of appropriate medium/well in flat-bottom microtitration 96-well plates. Plates were incubated at 37° C. for 24 hours before treatment in drug free culture medium. After a first dilution process, 10 μl of the test substances (single) were added on plate containing cells 24h after plating. Tumor cell lines were incubated for 72 h at 37° C. under 5% CO2 with 9 concentrations of each natural extract in 1:2 dilution steps. Top dose was 100 μg/ml for each plant extract and 1 μM for doxorubicin. Each concentration was tested in triplicates. Dilutions of each test substance as well as distribution to plates containing cells were performed manually. At least 2 independent experiments were performed for each plant extract. Control cells were treated with vehicles alone. […]
(§5) At the end of treatments, the cytotoxic activity of tested substances was evaluated by ATP-Lite assay (Ref. 6016949, Perkin-Elmer, and Batch 69-12172). […] This ATP level is quantified by the luminescence emitted by the firefly luciferase, through an ATP-dependent reaction. […] After, the plate was left for ten minutes in the dark and luminescence was measured as LV (Luminescence Value).

CMT-12 cancer cell line = assay: MTT proliferation assay; conditions: Canis lupus familiaris
Experimental: as §1, §2, §3

D17 cancer cell line = assay: MTT proliferation assay; conditions: Canis lupus familiaris
Experimental: as §1, §2, §3

HMPOS = assay: ATPlite proliferation assay; conditions: Canis lupus familiaris, 72 h
Experimental: as §4, §5
Chou-Tallalay CI corresponds to the combination indexes calculated using the appropriate algorithms. […]

[1] = read-out: chemotherapy IC50 (mass concentration in brackets)

toceranib phosphate
chemotherapy IC50 (mass concentration in brackets) (C2 cancer cell line): nM (6.2 ng mL^−1) | IC50 (C2 cancer cell line; read-out: chemotherapy IC50): 12.5 nM

COc1cccc2c1C(=O)c1c(O)c3c(c(O)c1C2=O)C[C@@](O)(C(=O)CO)C[C@@H]3O[C@H]1C[C@H](N)[C@H](O)[C@H](C)O1 [doxorubicin hydrochloride]
IC50 (CF41.Mg cell line): 375 ± 361 nM | IC50 (CMT-12 cancer cell line; read-out: chemotherapy IC50): 300 nM | IC50 (CMT-12 cancer cell line; [1]): 0.163 µg/mL | IC50 (D17 cancer cell line; read-out: chemotherapy IC50): 500 nM | IC50 (D17 cancer cell line; [1]): 0.272 µg/mL | IC50 (HMPOS): 11 nM
